Read-outs that look alike come from different tables or passages of the source.
Tests used:
BTK [1] = molecular target: T1, BTK (Homo sapiens (Human), UniProt Q06187); assay: Btk kinase assay (HTRF); type: biochemical
In short: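 HTRF read-out with enzyme, inhibitor, ATP and 1 μM peptide substrate in 50 mM Hepes pH 7.0, 0.02% NaN3, 0.01% BSA, 0.1 mM orthovanadate. Activity measured across compound concentrations against no-inhibitor controls, with no-enzyme wells as baseline.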
Target sequence in this assay (Q06187 whole entry, species assumed): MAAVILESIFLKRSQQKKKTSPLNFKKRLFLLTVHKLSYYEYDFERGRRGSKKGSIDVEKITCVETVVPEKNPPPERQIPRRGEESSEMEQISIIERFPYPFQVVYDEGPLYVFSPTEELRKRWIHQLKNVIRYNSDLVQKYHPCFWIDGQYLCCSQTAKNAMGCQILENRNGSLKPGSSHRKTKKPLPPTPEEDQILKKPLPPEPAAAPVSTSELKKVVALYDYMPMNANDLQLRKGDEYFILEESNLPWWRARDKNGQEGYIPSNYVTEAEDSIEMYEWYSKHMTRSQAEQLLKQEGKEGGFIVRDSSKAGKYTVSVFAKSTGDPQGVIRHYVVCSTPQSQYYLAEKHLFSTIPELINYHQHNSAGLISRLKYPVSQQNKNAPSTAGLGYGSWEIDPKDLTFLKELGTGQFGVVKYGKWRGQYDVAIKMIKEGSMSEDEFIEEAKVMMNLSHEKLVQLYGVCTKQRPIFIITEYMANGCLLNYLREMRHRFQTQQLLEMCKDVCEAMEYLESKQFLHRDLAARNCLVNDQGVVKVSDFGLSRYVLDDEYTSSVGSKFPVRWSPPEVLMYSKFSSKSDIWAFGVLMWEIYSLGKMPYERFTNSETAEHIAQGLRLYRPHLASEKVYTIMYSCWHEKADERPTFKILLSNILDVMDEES

BTK [2] = molecular target: T1, BTK; assay: Btk occupancy in cellular assays (PCI-33380 labeling, Jeko-1 cells); type: cell-based; settings: 1.5 h pre-incubation with compound, PCI-33380 5 μM 1 h
Method: Btk Occupancy in Cellular Assays
For PCI-33380 labeling of human B cells, 10^6 Jeko-1 cells were pre-incubated with compound for 1.5 h before labeling. Then cells were treated with PCI-33380 at 5 μM for 1 h. Washed, lysed in Ripa buffer containing sample reducing agent, and analyzed by SDS/PAGE and fluorescent gel scanning using a Typhoon scanner 9500 (GE Healthcare) (Ex, 532 nm; Em, 555 nm). The gel was then blotted and total Btk levels detected by standard Western blot with Btk antibody (CST).
Target sequence in this assay (Q06187 whole entry): as the sequence (Q06187 whole entry, species assumed) above

Ramos cells = assay: Calcium flux assay, anti-IgM stimulated Ramos cells; type: cell-based; settings: Ramos cells stimulated with goat anti-human IgM antibody 10 μg/ml; read-out: Ramos Ca Flux
Method: Calcium FluxAssay Calcium flux fluorescence-based assays were performed in […] (Hamamatsu Photonics) fluorometric imaging plate reader according to manufacturer instructions. […] Then 12.5 […] 2× dye loading solution (Fluo-4 NW Calcium Assay Kits, Invitrogen) was added per well of a 384-well plate. Afterwards, actively growing Ramos cells (ATCC) in RPM1640 medium supplemented with 10% FBS (Invitrogen) were washed and re-plated in assay buffer (from Fluo-4 NW Calcium Assay Kits, Invitrogen) to approximately 6.4×10^6/ml (80000 cells/12.5 μL in 384-well plates). The plates were incubated at 37° C. for 30 minutes, then at room temperature for an additional 30 minutes. The plates were now ready to be used in an experiment. Immediately after the transfer and a 10-s recording of baseline fluorescence, the compound treated cells were stimulated with a goat anti-human IgM antibody (10 μg/ml; Jackson Immuno Research) and read in a FDSS for 240 seconds. Difference between the signal and that at baseline, designated adjusted relative fluorescence unit, was calculated by using a custom Excel (Microsoft, Redmond, Wash.) template to determine IgM-induced calcium influx and its inhibition by compounds. The table belows show the result.

[3] = [ATP]=80 μM, BTK=3.4 nM, read-out: BTK Inhibition

| Structure (SMILES) | IC50 (BTK [1]; [3]) [nM] | concentration sufficient to fully occupy the active site of Btk (BTK [2]) [nM] | IC50 (Ramos cells) [nM] | IC50 (BTK [1]) [nM] |
| --- | --- | --- | --- | --- |
| C=CC(=O)N1CC[C@@H](n2nc(-c3ccc(Oc4cccc(OC)c4F)cc3)c3cncc(OC)c32)C1 [Compound 79, (R)-1-(3-(3-(4-(2-fluoro-3-methoxyphenoxy)phenyl)-7-methoxy-1H-pyrazolo[4,3-c]pyridin-1-yl)pyrrolidin-1-yl)prop-2-en-1-one] | < 10 | 50 |  |  |
| C=CC(=O)N1CC[C@@H](n2nc3ccncc3c2-c2ccc(Oc3cccc(Cl)c3Cl)cc2)C1 [Compound 41, (R)-1-(3-(3-(4-(2,3-dichlorophenoxy)phenyl)-2H-pyrazolo[4,3-c]pyridin-2-yl)pyrrolidin-1-yl)prop-2-en-1-one] | < 10 | 100 | 10 to 100 |  |
| C=CC(=O)N1CC[C@@H](n2nc(-c3ccc(Oc4cccc(Cl)c4F)cc3)c3cnccc32)C1 [Compound 19, (R)-1-(3-(3-(4-(3-chloro-2-fluorophenoxy)phenyl)-1H-pyrazolo[4,3-c]pyridin-1-yl)pyrrolidin-1-yl)prop-2-en-1-one] | < 10 |  | 10 to 100 |  |
| C=CC(=O)N1CCC[C@@H](n2nc(-c3ccc(Oc4cccc(OC)c4F)cc3)c3c(C)nccc32)C1 [Compound 78, (R)-1-(3-(3-(4-(2-fluoro-3-methoxyphenoxy)phenyl)-4-methyl-1H-pyrazolo[4,3-c]pyridin-1-yl)piperidin-1-yl)prop-2-en-1-one] | < 10 | 50 |  |  |
| C=CC(=O)N1CC[C@@H](n2nc(-c3ccc(Oc4ccccc4)c(Cl)c3)c3cnccc32)C1 [Compound 11, (R)-1-(3-(3-(3-chloro-4-phenoxyphenyl)-1H-pyrazolo[4,3-c]pyridin-1-yl)pyrrolidin-1-yl)prop-2-en-1-one] | < 10 |  | 100 to 1000 |  |
| C=CC(=O)N1CCC[C@@H](n2nc(-c3ccc(Oc4cccc(F)c4)cc3)c3cnccc32)C1 [Compound 62, (R)-1-(3-(3-(4-(3-fluorophenoxy)phenyl)-1H-pyrazolo[4,3-c]pyridin-1-yl)piperidin-1-yl)prop-2-en-1-one] | < 10 |  | 100 to 1000 |  |
| C=CC(=O)N1CCC[C@@H](n2nc(-c3ccc(Oc4cccc(Cl)c4F)cc3)c3cnccc32)C1 [Compound 20, (R)-1-(3-(3-(4-(3-chloro-2-fluorophenoxy)phenyl)-1H-pyrazolo[4,3-c]pyridin-1-yl)piperidin-1-yl)prop-2-en-1-one] | < 10 |  | 10 to 100 |  |
| C=CC(=O)N1CCC[C@@H](n2nc(-c3ccc(Oc4cccc(OC)c4F)cc3)c3cncc(OCCO)c32)C1 [Compound 98, (R)-1-(3-(3-(4-(2-fluoro-3-methoxyphenoxy)phenyl)-7-(2-hydroxyethoxy) 1H-pyrazolo[4,3-c]pyridin-1-yl)piperidin-1-yl)prop-2-en-1-one] | < 10 | 100 |  |  |
| C=CC(=O)N1CC[C@@H](n2nc(-c3ccc(Oc4cccc(F)c4F)cc3)c3cnccc32)C1 [Compound 18, (R)-1-(3-(3-(4-(2,3-difluorophenoxy)phenyl)-1H-pyrazolo[4,3-c]pyridin-1-yl)pyrrolidin-1-yl)prop-2-en-1-one] | < 10 |  | 10 to 100 |  |
| C=CC(=O)N1CC[C@@H](n2nc(-c3ccc(Oc4cccc(OC)c4Cl)cc3)c3cncc(OC)c32)C1 [Compound 69, (R)-1-(3-(3-(4-(2-chloro-3-methoxyphenoxy)phenyl)-7-methoxy-1H-pyrazolo[4,3-c]pyridin-1-yl)pyrrolidin-1-yl)prop-2-en-1-one] | < 10 | 100 |  |  |
| C=CC(=O)N1CC[C@@H](n2nc(-c3ccc(Oc4cccc(F)c4)cc3)c3cnccc32)C1 [Compound 63, (R)-1-(3-(3-(4-(3-fluorophenoxy)phenyl)-1H-pyrazolo[4,3-c]pyridin-1-yl)pyrrolidin-1-yl)prop-2-en-1-one] | < 10 |  | 100 to 1000 |  |
| C=CC(=O)N1CC[C@@H](n2nc(-c3ccc(Oc4cccc(OC)c4F)cc3)c3cncc(OCC)c32)C1 [Compound 80, (R)-1-(3-(7-cthoxy-3-(4-(2-fluoro-3-methoxyphenoxy)phenyl)-1H-pyrazolo[4,3-c]pyridin-1-yl)pyrrolidin-1-yl)prop-2-en-1-one] | < 10 | 50 |  |  |
| C=CC(=O)N1CCC[C@@H](n2nc(-c3ccc(Oc4cccc(OC)c4F)cc3)c3cncc(OCCC)c32)C1 [Compound 77, (R)-1-(3-(3-(4-(2-fluoro-3-methoxyphenoxy)phenyl)-7-propoxy-1H-pyrazolo[4,3-c]pyridin-1-yl)piperidin-1-yl)prop-2-en-1-one] | < 10 | 25 |  |  |
| C=CC(=O)N1CC[C@@H](n2nc(-c3ccc(Sc4cccc(F)c4)cc3)c3cnccc32)C1 [Compound 58, (R)-1-(3-(3-(4-((3-fluorophenyl)thio)phenyl)-1H-pyrazolo[4,3-c]pyridin-1-yl)pyrrolidin-1-yl)prop-2-en-1-one] | < 10 |  | 10 to 100 |  |
| C=CC(=O)N1CCC[C@@H](n2nc(-c3ccc(Oc4cccc5c4OCO5)cc3)c3cnccc32)C1 [Compound 8, (R)-1-(3-(3-(4-(benzo[d][1,3]dioxol-4-yloxy)phenyl)-1H-pyrazolo[4,3-c]pyridin-1-yl)piperidin-1-yl)prop-2-en-1-one] | 100 to 1000 |  |  |  |
| C=CC(=O)N1CC[C@@H](n2nc(-c3ccc(Oc4cccc(OC)c4Cl)cc3)c3cnccc32)C1 [Compound 13, (R)-1-(3-(3-(4-(2-chloro-3-methoxyphenoxy)phenyl)-1H-pyrazolo[4,3-c]pyridin-1-yl)pyrrolidin-1-yl)prop-2-en-1-one] | < 10 |  |  |  |
| C=CC(=O)N1CCCC(Cn2nc(-c3ccc(Oc4ccccc4)cc3)c3cnccc32)C1 (stereo not shown) [Compound 53, 1-(3-((3-(4-phenoxyphenyl)-1H-pyrazolo[4,3-c]pyridin-1-yl)methyl)piperidin-1-yl)prop-2-en-1-one] | 10 to 100 |  |  |  |
| C=CC(=O)N1CCC[C@@H](n2nc(-c3ccc(Oc4cccc(C)c4C)cc3)c3cnccc32)C1 [Compound 24, (R)-1-(3-(3-(4-(2,3-dimethylphenoxy)phenyl)-1H-pyrazolo[4,3-c]pyridin-1-yl)piperidin-1-yl)prop-2-en-1-one] | < 10 |  |  |  |
| C=CC(=O)N1CCC[C@@H](n2nc(-c3ccc(Oc4cccc(OC)c4F)cc3)c3cncc(OC4CCOC4)c32)C1 (stereo partly drawn) [Compound 99, 1-((3R)-3-(3-(4-(2-fluoro-3-methoxyphenoxy)phenyl)-7-((tctrahydrofuran-3-yl)oxy)-1H-pyrazolo[4,3-c]pyridin-1-yl)piperidin-1-yl)prop-2-en-1-one] | < 10 | 100 |  |  |
| C=CC(=O)N1CCc2c(c(-c3ccc(Oc4cccc(OC)c4F)cc3)nn2[C@@H]2CCN(C(=O)C=C)C2)C1 [Compound 46, (R)-1-(3-(5-acryloyl-3-(4-(2-fluoro-3-methoxyphenoxy)phenyl)-4,5,6,7-tetrahydro-1H-pyrazolo[4,3-c]pyridin-1-yl)pyrrolidin-1-yl)prop-2-en-1-one] | > 10000 |  |  |  |
| C=CC(=O)N1CC[C@@H](n2nc(-c3ccc(Oc4cccc(OC)c4)cc3)c3cnccc32)C1 [Compound 64, (R)-1-(3-(3-(4-(3-methoxyphenoxy)phenyl)-1H-pyrazolo[4,3-c]pyridin-1-yl)pyrrolidin-1-yl)prop-2-en-1-one] | < 10 |  | 10 to 100 |  |
| C=CC(=O)N1CCC[C@@H](n2nc(-c3ccc(Oc4cccc(OC)c4F)cc3)c3cncc(F)c32)C1 [Compound 70, (R)-1-(3-(7-fluoro-3-(4-(2-fluoro-3-methoxyphenoxy)phenyl)-1H-pyrazolo[4,3-c]pyridin-1-yl)piperidin-1-yl)prop-2-en-1-one] | < 10 |  |  |  |
| C=CC(=O)N1CCC[C@@H](n2nc(-c3ccc(COc4ccccc4)cc3)c3ccccc32)C1 [Compound 102, (R)-1-(3-(3-(4-(phenoxymethyl)phenyl)-1H-indazol-1-yl)piperidin-1-yl)prop-2-en-1-one] |  |  |  | 10 to 100 |
| C=CC(=O)N1CC[C@@H](n2nc(-c3ccc(Oc4ccccc4)c(F)c3)c3cnccc32)C1 [Compound 61, (R)-1-(3-(3-(3-fluoro-4-phenoxyphenyl)-1H-pyrazolo[4,3-c]pyridin-1-yl)pyrrolidin-1-yl)prop-2-en-1-one] | < 10 |  | 100 to 1000 |  |
| C=CC(=O)N1CCC[C@@H](n2nc(-c3ccc(Oc4cccc(OC)c4OCCC)cc3)c3cncc(OCCC)c32)C1 [Compound 88, (R)-1-(3-(3-(4-(3-methoxy-2-propoxyphenoxy)phenyl)-7-propoxy-1H-pyrazolo[4,3-c]pyridin-1-yl)piperidin-1-yl)prop-2-en-1-one] | 10 to 100 |  |  |  |

— patent US10662187B2, “Bruton's tyrosine kinase inhibitors” (Zibo Biopolar Changsheng Pharmaceutical Co. Ltd., priority 2016, dated 2020)
